# Results reported in patent publication US20090093468A1, “Peptide Deformylase Inhibitors” (priority 2004, published 2009).
# How the values were obtained:
# [1] = biological target: bacterial PDF (peptide deformylase), enzyme from E. coli (Escherichia coli, UniProt P0A6K3); assay: Bacterial peptide deformylase (PDF) assay, enzyme from E. coli; type: biochemical
# Protocol: (§1) The IC50 value of a compound of the invention as a bacterial PDF inhibitor was determined using the following assay.
# (§2) Assay buffer (pH 7.2): 0.1 M MOPS pH was adjusted to 7.2 with NaOH, containing 0.25 M NaCl, 100 microgram/mL catalase and 1 mg/mL BSA.
# (§3) Enzyme mix: 670 ng/mL of enzyme (to finally have 50 ng of enzyme per well).
# (§4) Substrate: 10 mM f-Met-Ala was made up from 200 mM f-Met-Ala in methanol with assay buffer.
# (§5) TNBS solution: Freshly dilute 1 M TNBS stock solution to 1:10 with water.
# (§6) Buffer C: 0.5 M borate buffer adjusted to pH 9.5 with NaOH.
# (§7) Buffer D: 0.2 ml of freshly prepared 0.5 M Na2SO3 was mixed with 9.8 mL of 0.5M NaH2PO4.
# (§8) Inhibitor solution: 2 mM Sodium 4-(hydroxymercurio) benzoate in assay buffer.
# (§9) The assay was performed in a 96 Microtiter plate containing test compound. To each well containing test compound mix was added 75 microliter of enzyme mix from E. coli followed, by the addition of 25 microliter of substrate mix. The resulting mix was incubated for 30 minutes at room temperature with shaking. TNBS solution (50 microliter/well) was added and the resulting mixture was incubated for 15 minutes under shaking. Buffer C was then added (20 microliter/well). After incubating at room temperature for 15 minutes under shaking, buffer D was added (50 microliter/well). The optical […] was then measured at 420 nm, thereby determining the IC50 value.
# [2] = biological target: T1, bacterial PDF (peptide deformylase), enzyme from S. aureus (Staphylococcus aureus, UniProt P68826); assay: Bacterial peptide deformylase (PDF) assay, enzyme from S. aureus; type: biochemical; conditions: PDF enzyme from S. aureus; substrate f-Met-Ala; TNBS readout at 420 nm; read-out: IC50 (enzyme from S. aureus)
# T1 sequence (P68826 1-183): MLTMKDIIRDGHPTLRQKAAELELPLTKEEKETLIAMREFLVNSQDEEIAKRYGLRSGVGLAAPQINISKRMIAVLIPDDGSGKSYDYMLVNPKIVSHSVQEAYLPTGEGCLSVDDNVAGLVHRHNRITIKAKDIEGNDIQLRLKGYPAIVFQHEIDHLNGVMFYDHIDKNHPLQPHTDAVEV
# Protocol: as §1, §2, §3, §4, §5, §6, §7, §8, §9
# The assay was repeated using enzyme mix from S. aureus.
# bacterial PDF (peptide deformylase), enzyme from E. coli, sequence (P0A6K3 whole entry): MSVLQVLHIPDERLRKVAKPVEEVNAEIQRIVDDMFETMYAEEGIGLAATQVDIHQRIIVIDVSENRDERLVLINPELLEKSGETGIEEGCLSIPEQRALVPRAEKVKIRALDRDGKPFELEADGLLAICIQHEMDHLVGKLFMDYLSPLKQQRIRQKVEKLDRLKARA
Structure (SMILES),IC50 [1] [µM],IC50 [2] [µM]
O=C(CC1CN(CC2CC2)c2ccccc2S1(=O)=O)NO (centres unmarked) [Example 35],2.1,4.8
"CCN1CC(CC(=O)NO)S(=O)(=O)c2ccc(C(=O)NCc3ccccc3[N+](=O)[O-])cc21 (centres unmarked) [Example 18, 4-Ethyl-2-hydroxycarbamoylmethyl-1,1-dioxo-1,2,3,4-tetrahydro-1λ^6-benzo[1,4]thiazine-6-carboxylic acid 2-nitro-benzylamide]",17.6,11.3
"CCN1CC(CC(=O)NO)S(=O)(=O)c2ccc(C(=O)NCc3cccc(F)c3)cc21 (centres unmarked) [Example 13, 4-Ethyl-2-hydroxycarbamoylmethyl-1,1-dioxo-1,2,3,4-tetrahydro-1λ^6-benzo[1,4]thiazine-6-carboxylic acid 3-fluoro-benzylamide]",11.7,13.7
"CCN1CC(CC(=O)NO)S(=O)(=O)c2ccc(C(=O)NCc3ccccc3F)cc21 (centres unmarked) [Example 12, 4-Ethyl-2-hydroxycarbamoylmethyl-1,1-dioxo-1,2,3,4-tetrahydro-1λ^6-benzo[1,4]thiazine-6-carboxylic acid 2-fluoro-benzylamide]",10.8,36.8
"CCN1CC(CC(=O)NO)S(=O)(=O)c2ccc(C(=O)NCc3ccc(OC(F)(F)F)cc3)cc21 (centres unmarked) [Example 26, 4-Ethyl-2-hydroxycarbamoylmethyl-1,1-dioxo-1,2,3,4-tetrahydro-1λ^6-benzo[1,4]thiazine-6-carboxylic acid 4-trifluoromethoxybenzylamide]",1.1,5
"CCN1CC(CC(=O)NO)S(=O)(=O)c2ccc(C(=O)NCc3cccc([N+](=O)[O-])c3)cc21 (centres unmarked) [Example 19, 4-Ethyl-2-hydroxycarbamoylmethyl-1,1-dioxo-1,2,3,4-tetrahydro-1λ^6-benzo[1,4]thiazine-6-carboxylic acid 3-nitro-benzylamide]",3.3,11.9
"CCN1CC(CC(=O)NO)S(=O)(=O)c2ccc(C(=O)NCc3cccc(OC)c3)cc21 (centres unmarked) [Example 22, 4-Ethyl-2-hydroxycarbamoylmethyl-1,1-dioxo-1,2,3,4-tetrahydro-1λ^6-benzo[1,4]thiazine-6-carboxylic acid 3-methoxy-benzylamide]",1,2.3
"CCN1CC(CC(=O)NO)S(=O)(=O)c2ccc(C(=O)Nc3cc[nH]n3)cc21 (centres unmarked) [Example 30, 4-Ethyl-2-hydroxycarbamoylmethyl-1,1-dioxo-1,2,3,4-tetrahydro-1λ^6-benzo[1,4]thiazine-6-carboxylic acid (1H-pyrazol-3-yl)-amide]",11.5,30.8
"CCN1CC(CC(=O)NO)S(=O)(=O)c2ccccc21 (centres unmarked) [Example 4, 2-(4-Ethyl-1,1-dioxo-1,2,3,4-tetrahydro-1λ^6-benzo[1,4]thiazin-2-yl)-N-hydroxy-acetamide]",1.4,2
"O=C(CC1CNc2ccccc2S1(=O)=O)NO (centres unmarked) [Example 2, 2-(1,1-Dioxo-1,2,3,4-tetrahydro-1λ^6-benzo[1,4]thiazin-2-yl)-N-hydroxy-acetamide]",3.4,1.5
"O=C(CC1CN(CC2CCCC2)c2ccccc2S1(=O)=O)NO (centres unmarked) [Example 37, 2-(4-Cyclopentylmethyl-1,1-dioxo-1,2,3,4-tetrahydro-1λ^6-benzo[1,4]thiazin-2-yl)-N-hydroxy-acetamide]",11.1,13.9
"CCN1CC(CC(=O)NO)S(=O)(=O)c2ccc(C(=O)NCc3cccc(Br)c3)cc21 (centres unmarked) [Example 16, 4-Ethyl-2-hydroxycarbamoylmethyl-1,1-dioxo-1,2,3,4-tetrahydro-1λ^6-benzo[1,4]thiazine-6-carboxylic acid 3-bromo-benzylamide]",2,9.7
"CCN1CC(CC(=O)NO)S(=O)(=O)c2ccc(C(=O)NCc3ccc([N+](=O)[O-])cc3)cc21 (centres unmarked) [Example 20, 4-Ethyl-2-hydroxycarbamoylmethyl-1,1-dioxo-1,2,3,4-tetrahydro-1λ^6-benzo[1,4]thiazine-6-carboxylic acid 4-nitro-benzylamide]",1.2,3.9
"CCN1CC(CC(=O)NO)S(=O)(=O)c2ccc(C(=O)NCc3cccc(C(F)(F)F)c3)cc21 (centres unmarked) [Example 24, 4-Ethyl-2-hydroxycarbamoylmethyl-1,1-dioxo-1,2,3,4-tetrahydro-1λ^6-benzo[1,4]thiazine-6-carboxylic acid 3-trifluoromethyl-benzylamide]",2,8.3
"O=C(CC1CNc2ccccc2S1)NO (centres unmarked) [Example 1, 2-(3,4-Dihydro-2H-benzo[1,4]thiazin-2-yl)-N-hydroxy-acetamide]",56.7,37.6
"O=C(CC1CN(CC2CCC2)c2ccccc2S1(=O)=O)NO (centres unmarked) [Example 36, 2-(4-Cyclobutylmethyl-1,1-dioxo-1,2,3,4-tetrahydro-1λ^6-benzo[1,4]thiazin-2-yl)-N-hydroxy-acetamide]",3.3,3.8
"CCN1CC(CC(=O)NO)S(=O)(=O)c2ccc(C(=O)NCc3ccc(C(F)(F)F)cc3)cc21 (centres unmarked) [Example 25, 4-Ethyl-2-hydroxycarbamoylmethyl-1,1-dioxo-1,2,3,4-tetrahydro-1λ^6-benzo[1,4]thiazine-6-carboxylic acid 4-trifluoromethyl-benzylamide]",,4.2
"O=C(CC1CN(Cc2ccccc2)c2ccccc2S1(=O)=O)NO (centres unmarked) [Example 9, 2-(4-Benzyl-1,1-dioxo-1,2,3,4-tetrahydro-1λ^6-benzo[1,4]thiazin-2-yl)-N-hydroxy-acetamide]",21.2,21.4
"CCN1CC(CC(=O)NO)S(=O)(=O)c2ccc(C(=O)NCc3ccc(F)cc3)cc21 (centres unmarked) [Example 14, 4-Ethyl-2-hydroxycarbamoylmethyl-1,1-dioxo-1,2,3,4-tetrahydro-1λ^6-benzo[1,4]thiazine-6-carboxylic acid 4-fluoro-benzylamide]",10.5,10
"CCCCN1CC(CC(=O)NO)S(=O)(=O)c2ccccc21 (centres unmarked) [Example 8, 2-(4-Butyl-1,1-dioxo-1,2,3,4-tetrahydro-1λ^6-benzo[1,4]thiazin-2-yl)-N-hydroxy-acetamide]",8.8,8.1
"CCN1CC(CC(=O)NO)S(=O)(=O)c2ccc(C(=O)NCc3ccccc3Br)cc21 (centres unmarked) [Example 15, 4-Ethyl-2-hydroxycarbamoylmethyl-1,1-dioxo-1,2,3,4-tetrahydro-1λ^6-benzo[1,4]thiazine-6-carboxylic acid 2-bromo-benzylamide]",20,9.6
"CCN1CC(CC(=O)NO)S(=O)(=O)c2ccc(C(=O)Nc3cc(-c4cccs4)n[nH]3)cc21 (centres unmarked) [Example 33, 4-Ethyl-2-hydroxycarbamoylmethyl-1,1-dioxo-1,2,3,4-tetrahydro-1λ^6-benzo[1,4]thiazine-6-carboxylic acid (5-thiophen-2-yl-2H-pyrazol-3-yl)-amide]",0.9,3
"CCCCN1CC(CC(=O)NO)Sc2ccccc21 (centres unmarked) [Example 7, 2-(4-Butyl-3,4-dihydro-2H-benzo[1,4]thiazin-2-yl)-N-hydroxy-acetamide]",22,35.5
"CCN1CC(CC(=O)NO)Sc2ccccc21 (centres unmarked) [Example 3, 2-(4-Ethyl-3,4-dihydro-2H-benzo[1,4]thiazin-2-yl)-N-hydroxy-acetamide]",2.6,5.6
